Source: ChEMBL document CHEMBL1201862, “PubChem BioAssay data set” (2004)
Calls of active or inactive are those of the source. Rule as the data show it, for most assays here: actives have a measured EC50 and inactives only a lower limit.

Legend:
[1] = molecular target: T1, Heat shock factor protein 1 (Mus musculus, UniProt P38532); experiment: inhibition of MG132-induced HSE-luciferase signal, confirmation, cell-based, NIH3T3, luminescence, dose retest (AID 2382); type: functional;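 also: NIH3T3 fibroblasts with HSF1-driven luciferase reporter stressed by proteasome inhibitor MG132; luminescence from HSF1-driven luciferase expression after 8 hours of MG132 stress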
T1 sequence (P38532 whole entry): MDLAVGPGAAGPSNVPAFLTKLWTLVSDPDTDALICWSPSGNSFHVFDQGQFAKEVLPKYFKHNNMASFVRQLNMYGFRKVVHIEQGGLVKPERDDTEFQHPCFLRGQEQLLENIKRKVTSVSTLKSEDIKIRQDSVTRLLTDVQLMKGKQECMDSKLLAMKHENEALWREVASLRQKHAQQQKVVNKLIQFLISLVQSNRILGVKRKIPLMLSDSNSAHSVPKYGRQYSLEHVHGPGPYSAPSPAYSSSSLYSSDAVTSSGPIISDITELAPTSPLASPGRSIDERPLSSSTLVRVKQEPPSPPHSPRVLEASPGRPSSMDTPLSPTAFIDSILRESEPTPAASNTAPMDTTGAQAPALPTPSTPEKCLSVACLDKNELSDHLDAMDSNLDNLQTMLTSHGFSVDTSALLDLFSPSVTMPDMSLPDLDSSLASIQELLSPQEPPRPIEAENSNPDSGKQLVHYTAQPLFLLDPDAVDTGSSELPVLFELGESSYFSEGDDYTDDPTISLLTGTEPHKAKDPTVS

[2] = molecular target: T1, Heat shock factor protein 1; experiment: HSF1 potentiators in luciferase reporter cells, confirmation, cell-based, NIH3T3, luminescence, dose retest (AID 435004); type: functional;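 also: stress induced by proteasome inhibitor MG132 added 30 min after compound; luciferase reporter driven by HSF1 response element in NIH3T3 cells; actives raise luminescence as potentiators of the MG132 stress response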
[3] = molecular target: Cytochrome P450 2C9 (Homo sapiens, UniProt P11712)
[4] = test system: Streptococcus sp. 'group A'; experiment: growth inhibition of control SK(-) GAS strain, dose response, counter-screen for streptokinase expression inhibitor project, luminescence, kanamycin, BacTiterGlo, confirmation (AID 1900); type: functional, organism-based
[5] = molecular target: T2, Streptokinase A (Streptococcus pyogenes serotype M1, UniProt P10520); experiment: S. pyogenes streptokinase expression inhibitors, potency, dose response, plasminogen activation absorbance, OD405 (AID 1914); type: functional, Streptococcus pyogenes M1 GAS;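 also: secreted streptokinase activity via plasminogen activation per viability signal from cell pellet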
T2 sequence (P10520 whole entry): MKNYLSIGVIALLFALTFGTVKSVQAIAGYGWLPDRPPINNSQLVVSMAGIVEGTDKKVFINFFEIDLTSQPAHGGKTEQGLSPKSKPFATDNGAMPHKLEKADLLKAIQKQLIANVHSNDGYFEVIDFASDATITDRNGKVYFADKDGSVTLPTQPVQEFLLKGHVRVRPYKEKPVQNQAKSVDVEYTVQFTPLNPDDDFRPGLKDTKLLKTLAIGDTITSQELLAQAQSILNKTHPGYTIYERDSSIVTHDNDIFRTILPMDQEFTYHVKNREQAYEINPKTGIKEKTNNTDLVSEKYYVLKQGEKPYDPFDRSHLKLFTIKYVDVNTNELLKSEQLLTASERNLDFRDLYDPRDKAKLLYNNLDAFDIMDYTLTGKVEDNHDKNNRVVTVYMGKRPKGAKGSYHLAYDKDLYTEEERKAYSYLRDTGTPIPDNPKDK

[6] = test system: Streptococcus; experiment: Group A Streptococcus viability loss, dose response, counter-screen for streptokinase expression inhibitor project, luminescence, BacTiterGlo (AID 1915); type: functional, organism-based;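 also: potency for reduction of bacterial viability or growth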
[7] = HepG2 cell cytotoxicity, dose response, cytotoxicity control for Shn3 inhibitor project, CellTiter-Glo, cherry-picked (AID 624134); type: functional, cell-based
[8] = control 3'UTR Renilla luciferase suppression, dose response, counter-screen for Shn3 inhibitor project, cell-based, Clone20-Shn3RL, cherry-picked (AID 624133); type: functional
[9] = Shn3 3'UTR reporter inhibitors, dose response, cell-based, Clone20 osteoblasts, firefly luciferase, cherry-picked (AID 624132); type: functional;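 also: firefly luciferase luminescence from reporter carrying the Shn3 3'UTR in osteoblasts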
[10] = test system: INS1; experiment: beta cell apoptosis inhibitors, cytokine rescue, dose response, luminescence, retest (AID 449756); type: functional, cell-based; details: Rattus norvegicus;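 also: cell death triggered by IL-1 beta plus TNF-alpha plus IFN-gamma mixture; protective hits raise ATP signal compared with cytokine alone wells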
[11] = molecular target: T3, Protein RecA (Mycobacterium tuberculosis, UniProt P9WHJ3); experiment: Fluorescence Cell-Free Homogeneous Dose Retest to Identify Inhibitors of RecA-Intein Splicing Activity. [Related pubchem assays (depositor defined):AID2097, AID2223, AID489010, AID492950]; type: functional
T3 sequence (P9WHJ3 whole entry): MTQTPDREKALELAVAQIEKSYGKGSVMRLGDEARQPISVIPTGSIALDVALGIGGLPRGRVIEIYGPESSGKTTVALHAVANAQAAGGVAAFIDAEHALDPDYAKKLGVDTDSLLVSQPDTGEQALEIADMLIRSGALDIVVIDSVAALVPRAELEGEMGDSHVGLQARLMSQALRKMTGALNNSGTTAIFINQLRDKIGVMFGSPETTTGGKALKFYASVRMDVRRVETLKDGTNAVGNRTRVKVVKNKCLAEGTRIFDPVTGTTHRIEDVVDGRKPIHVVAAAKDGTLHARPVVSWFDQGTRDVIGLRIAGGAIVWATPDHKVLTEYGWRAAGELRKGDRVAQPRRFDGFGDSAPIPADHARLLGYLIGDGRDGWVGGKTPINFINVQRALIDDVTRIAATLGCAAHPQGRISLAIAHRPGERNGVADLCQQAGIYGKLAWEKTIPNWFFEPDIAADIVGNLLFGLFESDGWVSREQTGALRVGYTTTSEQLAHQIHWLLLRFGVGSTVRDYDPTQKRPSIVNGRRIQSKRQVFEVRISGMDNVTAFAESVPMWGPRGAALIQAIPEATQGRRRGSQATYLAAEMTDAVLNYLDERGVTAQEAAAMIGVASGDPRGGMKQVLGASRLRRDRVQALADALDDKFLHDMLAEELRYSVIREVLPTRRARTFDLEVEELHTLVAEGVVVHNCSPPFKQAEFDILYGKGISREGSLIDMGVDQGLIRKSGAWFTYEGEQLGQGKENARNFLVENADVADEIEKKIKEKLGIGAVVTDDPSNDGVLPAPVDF

Chain of Cytochrome P450 2C9 (P11712 whole entry): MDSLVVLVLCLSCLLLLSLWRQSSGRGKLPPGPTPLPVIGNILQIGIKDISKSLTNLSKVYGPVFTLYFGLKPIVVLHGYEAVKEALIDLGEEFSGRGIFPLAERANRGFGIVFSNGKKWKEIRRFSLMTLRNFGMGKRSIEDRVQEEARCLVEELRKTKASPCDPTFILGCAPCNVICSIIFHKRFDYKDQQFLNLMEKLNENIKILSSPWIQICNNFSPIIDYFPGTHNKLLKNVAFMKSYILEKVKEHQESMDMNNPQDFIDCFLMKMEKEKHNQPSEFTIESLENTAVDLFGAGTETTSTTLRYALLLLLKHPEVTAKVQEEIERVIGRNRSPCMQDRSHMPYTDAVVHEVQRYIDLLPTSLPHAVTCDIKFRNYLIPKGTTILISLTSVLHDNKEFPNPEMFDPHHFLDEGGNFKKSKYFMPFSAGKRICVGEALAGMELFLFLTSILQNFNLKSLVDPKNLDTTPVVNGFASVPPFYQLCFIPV

## CC(=O)Nc1ccc(Cc2ccncc2)cc1
[1]
  EC50: > 195 µM (not active)

## CCN(CC)S(=O)(=O)c1ccc2c(c1)nc(SCC(=O)NC1CC1)n2-c1ccccc1OC
[2]
  EC50: > 260 µM (inactive)

## O=[N+]([O-])c1cccc(-c2nc(-c3ccncc3)no2)c1
[3]
  AC50: 8.91 µM (inconclusive)

## COCCn1c(SCC(=O)c2cc(C)n(C)c2C)nc2ccccc2c1=O
[1]
  EC50: > 195 µM (not active)

## COCC(=O)N1CCC2(CCCN(c3ccc(-c4ccccc4)cc3)C2)CC1
[3]
  AC50: 20 µM (inconclusive)

## Cc1ccc(S(=O)(=O)N2CCC(C(=O)NNC(=O)c3ccncc3)CC2)cc1
[1]
  EC50: > 195 µM (not active)

## Cn1c(=O)c2cn(Cc3ccc(Cl)cc3)cc2n(C)c1=O
[1]
  EC50: > 195 µM (not active)

## Oc1cc(O)nc(SCc2ccc(Cl)cc2)n1
[4]
  EC50: 81.5 µM (active)
[5]
  EC50: > 150 µM (not active)
[6]
  EC50: > 150 µM (not active)

## CCCCNc1c(-c2ccc(OC)c(SC3CCCCC3)c2)nc2cnccn12
[4]
  EC50: 4.63 µM (active)
[5]
  EC50: 6.56 µM (active)
[6]
  EC50: 8.16 µM (active)

## O=C(Nc1ccc(N2C(=O)C3C4C=CC(C4)C3C2=O)cc1)Nc1nncs1 (stereo not given)
[1]
  EC50: > 195 µM (not active)

## O=c1cc2c(nn1Cc1ccc(Cl)cc1Cl)-c1ccccc1CC2
[4]
  EC50: 7.36 µM (active)
[5]
  EC50: 11 µM (active)
[6]
  EC50: 17.6 µM (active)

## COC(=O)c1ccc(CN2CCN(CCc3ccccc3)C(CCO)C2)cc1 (stereo not given)
[1]
  EC50: > 195 µM (not active)

## CCN1CCN(Cc2ccc(NC(=O)c3ccc(C)c(NC(=O)c4cncc(-c5cccs5)c4)c3)cc2C(F)(F)F)CC1
[7]
  AC50: 7.28 µM (active)
[8]
  AC50: 0.898 µM (active)
[9]
  AC50: 0.808 µM (active)

## O=S(=O)(c1ccc(F)c(F)c1F)N1CCN(c2ncnc3sccc23)CC1
[10]
  AC50: 4.95 µM (active)

## Cc1cccc(N2C(=N)SCC2=O)c1C
[2]
  EC50: > 260 µM (inactive)

## Fc1ccc(NC(S)=NCc2ccccc2)cc1
[1]
  EC50: > 195 µM (not active)

## O=S(=O)(NC(=Nc1cccc2ccccc12)c1ccccc1)c1ccc(F)cc1
[2]
  EC50: > 260 µM (inactive)

## O=C(COC(=O)C1CSC2(c3ccc(F)cc3)CCC(=O)N12)NC(=O)NC1CCCC1 (stereo not given)
[2]
  EC50: > 260 µM (inactive)

## CC(C)C[C@@H](CC#N)N1CCN(Cc2ccccc2)CCC1=O
[1]
  EC50: > 195 µM (not active)

## CC(=O)c1cccc(NS(=O)(=O)c2ccc(N/C=C\C(=O)c3ccc(C)cc3)cc2)c1
[7]
  AC50: > 70 µM (inactive)
[8]
  AC50: 19.6 µM (active)
[9]
  AC50: 1.51 µM (active)

## O=C(NCc1ccco1)C1CC(O)CN1C(=O)Nc1ccccc1 (stereo not given)
[2]
  EC50: > 260 µM (inactive)

## COc1cccc(CNCC(O)(c2ccc(Cl)cc2)c2ccc(Cl)cc2)c1
[4]
  EC50: 3.15 µM (active)
[5]
  EC50: 18.9 µM (active)
[6]
  EC50: 18.2 µM (active)

## CCSC1=NCCN1C(=O)C(C)(C)Oc1ccc(Cl)cc1
[10]
  AC50: > 260 µM (inactive)

## CCCC(c1nnnn1Cc1ccc(OC)cc1)N1CCN(c2ccccc2)CC1 (stereo not given)
[9]
  AC50: 31.9 µM (active)

## CC(C)c1ccc(/C(C(=O)O)=C(\O)C(=O)O)cc1
[3]
  AC50: 3.16 µM (inconclusive)

## COc1cc(OC)c(OC)cc1CNC(=O)c1cccc(S(=O)(=O)N2CCc3ccccc3C2)c1
[7]
  AC50: 3.08 µM (active)
[8]
  AC50: 24 µM (active)
[9]
  AC50: 2.39 µM (active)

## Cc1nc2ccccc2c2oc(C(=O)Nc3ccc(C(C)C)cc3)cc12
[10]
  AC50: 18.8 µM (active)

## N#Cc1ccccc1COC(=O)c1cc(=O)c2ccccc2o1
[2]
  EC50: > 260 µM (inactive)

## CCn1c(SCC(=O)c2ccccc2)nnc1-c1cccs1
[3]
  AC50: 28.2 µM (inconclusive)

## CCOc1ccc(NC(=O)CCCNC(=O)Cn2cnc3sc(C)c(C)c3c2=O)cc1
[1]
  EC50: > 195 µM (not active)

## CC1Cc2ccccc2N1C(=O)C12CCC(C)(C(=O)C1)C2(C)C (stereo not given)
[1]
  EC50: > 195 µM (not active)

## O=C(Nc1ccc(N2CCOCC2)cc1)c1cc(-c2ccncc2)nc2ccccc12
[1]
  EC50: > 195 µM (not active)

## OC1(c2ccc(Br)cc2)CCN(Cc2cccc(Br)c2)CC1
[1]
  EC50: > 195 µM (not active)

## COCCN1C(=O)c2ccccc2C(C(=O)Nc2ccc3c(c2)OCCO3)C1c1ccc(F)cc1 (stereo not given)
[3]
  AC50: 35.5 µM (inconclusive)

## COc1ccc(NC(=O)c2cccnc2)cc1OCC(C)C
[1]
  EC50: > 195 µM (not active)

## Cc1cc(NC(=S)N(Cc2ccc(Cl)cc2)Cc2ccc(C(=O)O)cc2)ccc1Cl
[4]
  EC50: 10.1 µM (active)
[5]
  EC50: > 150 µM (not active)
[6]
  EC50: > 150 µM (not active)

## COc1cc(-c2ccc(NC(=O)NC3CC3)c(OC)c2)ccc1NC(=O)NC1CC1
[4]
  EC50: 117 µM (active)
[5]
  EC50: > 150 µM (not active)
[6]
  EC50: 135 µM (active)

## Cc1ccccc1OCC(=O)Nc1ccccc1N1CCCCC1
[4]
  EC50: 9.64 µM (active)
[11]
  EC50: 242 µM (active)
[5]
  EC50: 14.2 µM (active)
[6]
  EC50: 17.9 µM (active)

## C=CCN(CC=C)Cc1c[nH]c2ccccc12
[10]
  AC50: > 260 µM (inactive)

## Cc1cc(C)n(-c2cc(=O)n(C)c(=O)n2C)n1
[2]
  EC50: > 260 µM (inactive)

## CCOC(=O)c1cc(-c2ccc3c(c2)OCCO3)nc2c1c(C)nn2CCC#N
[4]
  EC50: 4.49 µM (active)
[5]
  EC50: > 150 µM (not active)
[6]
  EC50: 17.6 µM (active)

## CCOc1ccc(N(C)S(=O)(=O)c2ccc(C)c(C(=O)OCC(=O)c3c[nH]c4ccccc34)c2)cc1
[10]
  AC50: 11.3 µM (active)

## O=C1C(CC[S+]([O-])c2ccccc2)C(=O)N(c2ccccc2)N1c1ccccc1 (stereo not given) [SULFINPYRAZONE]
[3]
  AC50: 10 µM (inconclusive)

## CCOC(=O)C1CCN(C(=O)CC(C)c2ccccc2)CC1 (stereo not given)
[1]
  EC50: 13.5 µM (active)

## Cn1c(=O)c2c(nc(NCCO)n2C)n(C)c1=O
[2]
  EC50: > 260 µM (inactive)

## COc1ccc(C)cc1Cn1c(S(C)(=O)=O)nc2ccccc21
[2]
  EC50: > 260 µM (inactive)

## Cn1c(CCC(=O)OCC(=O)Nc2ccc(Oc3ccccc3)cc2)nc(=O)c2ccccc21
[2]
  EC50: > 260 µM (inactive)

## CCCCCCCCCCCCN1C(=O)CSC1c1cccnc1 (stereo not given)
[4]
  EC50: 6.74 µM (active)
[5]
  EC50: 20.4 µM (active)
[6]
  EC50: > 150 µM (not active)

## COc1ccc(S(=O)(=O)NCC(c2ccc(F)cc2)N2CCN(C)CC2)cc1 (stereo not given)
[4]
  EC50: > 150 µM (not active)
[5]
  EC50: > 150 µM (not active)
[6]
  EC50: > 150 µM (not active)

## Cc1ccc(-c2csc3ncnc(O)c23)c(C)c1
[2]
  EC50: > 260 µM (inactive)

## CCc1nnc(N/N=C/c2ccccc2Cl)n1N
[2]
  EC50: > 260 µM (inactive)

## COC(=O)c1ccc(CNC(=O)C(NC(=O)c2ccco2)C(C)C)cc1 (stereo not given)
[1]
  EC50: > 195 µM (not active)

## COc1ccc(N=C(S)Nc2ccccc2SC)c(OC)c1
[2]
  EC50: > 260 µM (inactive)
